One assay relates to M-NFS-60 cells. The assay can be described thus: M-NFS-60 cell proliferation assay (resazurin). The format is cell-based. Particulars: 67 h incubation. The method, boiled down:
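Cells kept in medium containing 20 ng/mL mouse recombinant M-CSF. Fluorescence was read at ex 540/em 600 nm, and IC50 was fitted from percent inhibition across a range of inhibitor concentrations.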
A general note: Alamar Blue is a resazurin reagent that responds to reducing activity.

Assay [1] deals with unphosphorylated PDGFRβ kinase (uPDGFRβ, Seq. ID No. 3) (Homo sapiens (Human), UniProt P09619). Description: Unphosphorylated PDGFRβ kinase assay (coupled pyruvate kinase/lactate dehydrogenase). The format is biochemical. Particulars: enzymatic assay, ATP 500 μM. The method, then:
Unphosphorylated PDGFRβ (uPDGFRβ) Kinase (Seq. ID No. 3) Assay
Activity of unphosphorylated PDGFRβ kinase (uPDGFRβ, Seq. ID No. 3) was determined by following the production of ADP from the kinase reaction with ATP and poly E4Y as substrates through coupling with the pyruvate kinase/lactate dehydrogenase system (e.g., Schindler et al. Science (2000) 289: 1938-1942). In this assay, the oxidation of NADH (thus the decrease at A340 nm) was continuously monitored spectrophometrically. The reaction mixture (100 μL) contained PDGFRβ (DeCode, 15.7 nM), polyE4Y (2.5 mg/mL), MgCl2 (10 mM), pyruvate kinase (4 units), lactate dehydrogenase (0.7 units), phosphoenol pyruvate (1 mM) and NADH (0.28 mM) and ATP (500 μM) in a 90 mM Tris buffer containing 0.2% octyl-glucoside and 1% DMSO, at pH 7.5. The inhibition reaction was started by mixing serial diluted test compound with the above reaction mixture. The absorption at 340 nm was monitored continuously for 4 h at 30° C. on a Polarstar Optima or Synergy 2 plate reader. The reaction rate was calculated using the 1.5 to 2.5 h time frame. Percent inhibition was obtained by comparison of reaction rate with that of a control (i.e., with no test compound). IC50 values were calculated from a series of percent inhibition values determined at a range of inhibitor concentrations using software routines as implemented in the GraphPad Prism software package.
uPDGFRβ Kinase Sequence (Residues 557-1106) Used for Screening (Seq ID No. 3)

In assay [2] the target is unphosphorylated c-KIT kinase (uKIT, Seq. ID no. 2) (Homo sapiens (Human), UniProt P10721). The assay can be described thus: uKit kinase assay (coupled pyruvate kinase/lactate dehydrogenase). The format is biochemical. Particulars: enzymatic assay, ATP 2000 μM. The method, boiled down: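 Unphosphorylated KIT (12 nM, N-terminal GST fusion) was run with 1 mg/mL polyE4Y, 2000 μM ATP and 10 mM MgCl2 in Tris buffer (pH 7.5, 0.2% octyl-glucoside, 1% DMSO). ADP was coupled via PK/LDH, with NADH loss tracked at A340 for 4 h at 30 °C. Rates at 3–4 h gave % inhibition and IC50.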

For a further assay, the system named is osteoclast precursors. Description: Osteoclast tartrate-resistant acid phosphatase assay. Particulars: Osteoclast, 7-14 days, RANKL and M-CSF. Format: cell-based.
Assay [3] has as its target unphosphorylated c-FMS kinase (uFMS, Seq. ID no. 1) (Homo sapiens (Human), UniProt P07333). The assay can be described thus: uFMS kinase assay (ADP production coupled to pyruvate kinase/lactate dehydrogenase). The format is biochemical. Particulars: enzymatic assay, ATP 500 μM; read-out: uFMS. The method, boiled down: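 Unphosphorylated FMS (10 nM) with polyE4Y 1 mg/mL and 500 μM ATP in 90 mM Tris pH 7.5, 10 mM MgCl2, 0.2% octyl-glucoside, 1% DMSO. ADP formation was coupled via pyruvate kinase/LDH to NADH oxidation, followed at A340 for 4 h at 30° C.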

Sequence of unphosphorylated c-FMS kinase (uFMS, Seq. ID no. 1) (P07333 538-972): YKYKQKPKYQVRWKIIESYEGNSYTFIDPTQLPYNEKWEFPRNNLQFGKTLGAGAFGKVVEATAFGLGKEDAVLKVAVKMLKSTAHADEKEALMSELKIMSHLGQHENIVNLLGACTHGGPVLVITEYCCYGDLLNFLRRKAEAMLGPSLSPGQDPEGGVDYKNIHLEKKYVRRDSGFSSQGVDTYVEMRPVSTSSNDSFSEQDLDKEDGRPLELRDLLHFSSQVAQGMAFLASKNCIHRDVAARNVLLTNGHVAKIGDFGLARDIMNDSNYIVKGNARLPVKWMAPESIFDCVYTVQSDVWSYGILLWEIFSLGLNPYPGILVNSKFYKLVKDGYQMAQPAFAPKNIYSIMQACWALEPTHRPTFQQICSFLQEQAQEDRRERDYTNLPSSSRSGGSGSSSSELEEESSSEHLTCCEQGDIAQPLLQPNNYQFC
Sequence of unphosphorylated PDGFRβ kinase (uPDGFRβ, Seq. ID No. 3) (P09619 557-1106): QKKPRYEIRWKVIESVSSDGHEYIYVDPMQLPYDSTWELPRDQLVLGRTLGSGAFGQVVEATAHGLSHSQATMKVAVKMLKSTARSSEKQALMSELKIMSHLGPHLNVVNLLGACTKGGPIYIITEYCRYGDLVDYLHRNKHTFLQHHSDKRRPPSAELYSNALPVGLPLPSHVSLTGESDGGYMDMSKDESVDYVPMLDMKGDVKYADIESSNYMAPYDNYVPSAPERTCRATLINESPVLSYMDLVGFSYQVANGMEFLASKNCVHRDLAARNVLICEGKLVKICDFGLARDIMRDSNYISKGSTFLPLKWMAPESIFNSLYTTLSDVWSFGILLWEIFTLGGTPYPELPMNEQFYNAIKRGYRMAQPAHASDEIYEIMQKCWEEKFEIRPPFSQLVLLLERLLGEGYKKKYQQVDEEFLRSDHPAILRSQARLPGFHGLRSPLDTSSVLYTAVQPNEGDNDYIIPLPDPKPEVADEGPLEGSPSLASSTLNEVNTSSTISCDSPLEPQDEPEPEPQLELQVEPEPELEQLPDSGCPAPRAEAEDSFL
Sequence of unphosphorylated c-KIT kinase (uKIT, Seq. ID no. 2) (P10721 other isoform, or with tags, fused parts or gaps): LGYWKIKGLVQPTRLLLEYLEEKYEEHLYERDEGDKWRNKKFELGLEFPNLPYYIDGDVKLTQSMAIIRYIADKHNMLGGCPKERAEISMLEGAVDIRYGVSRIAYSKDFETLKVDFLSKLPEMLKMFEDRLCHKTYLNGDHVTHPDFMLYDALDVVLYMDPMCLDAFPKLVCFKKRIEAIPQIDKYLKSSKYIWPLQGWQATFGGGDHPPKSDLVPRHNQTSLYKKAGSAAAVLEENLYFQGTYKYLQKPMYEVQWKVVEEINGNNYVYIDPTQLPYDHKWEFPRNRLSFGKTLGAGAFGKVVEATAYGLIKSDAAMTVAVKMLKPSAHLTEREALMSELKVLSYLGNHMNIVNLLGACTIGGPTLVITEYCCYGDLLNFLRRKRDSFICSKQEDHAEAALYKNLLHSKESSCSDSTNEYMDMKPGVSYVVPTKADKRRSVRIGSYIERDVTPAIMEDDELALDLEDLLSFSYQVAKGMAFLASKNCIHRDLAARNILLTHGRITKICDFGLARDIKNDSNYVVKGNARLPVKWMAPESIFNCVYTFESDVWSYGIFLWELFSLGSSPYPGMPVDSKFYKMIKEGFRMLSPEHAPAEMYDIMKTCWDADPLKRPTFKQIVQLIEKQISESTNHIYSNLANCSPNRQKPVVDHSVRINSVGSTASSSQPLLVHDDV

As for `CCN1CCN(C(=O)Nc2ccc(Oc3ccnc(-c4ccc(N5CCN(C)CC5)cc4)c3)c(C)n2)C1=O` [Example 68, 3-ethyl-N-(6-methyl-5-((2-(4-(4-methylpiperazin-1-yl)phenyl)pyridin-4-yl)oxy)pyridin-2-yl)-2-oxoimidazolidine-1-carboxamide], the IC50 in the assay with M-NFS-60 cells was 10 to 100 nM; in assay [1], more than 1000 nM; in assay [2] it was 10 to 100 nM; in the assay on osteoclast precursors, less than 10 nM; in assay [3] it was less than 10 nM.

On to `CCN1CCN(C(=O)Nc2ccc(Oc3ccnc(-c4cnc(C)s4)c3)cn2)C1=O` [Example 69, 3-ethyl-N-(5-((2-(2-methylthiazol-5-yl)pyridin-4-yl)oxy)pyridin-2-yl)-2-oxoimidazolidine-1-carboxamide], for which the IC50 is 100 to 1000 nM with M-NFS-60 cells; more than 1000 nM in assay [1]; 10 to 100 nM in assay [2]; 10 to 100 nM with osteoclast precursors; 10 to 100 nM in assay [3].

Consider `CCN1CCN(C(=O)Nc2ccc(Oc3ccnc(-c4cnc(C)s4)c3)c(C)n2)C1=O` [Example 70, 3-ethyl-N-(6-methyl-5-((2-(2-methylthiazol-5-yl)pyridin-4-yl)oxy)pyridin-2-yl)-2-oxoimidazolidine-1-carboxamide], for which the IC50 with M-NFS-60 cells is 100 to 1000 nM; in assay [1], more than 1000 nM; in assay [2], 100 to 1000 nM; in the assay on osteoclast precursors, 10 to 100 nM; in assay [3] it was 10 to 100 nM.

For the compound `Cc1cc(NC(=O)N2CCN(C3CC3)C2=O)nc(C)c1Oc1ccnc(-c2cnn(C)c2)c1` [Example 71, 3-cyclopropyl-N-(4,6-dimethyl-5-((2-(1-methyl-1H-pyrazol-4-yl)pyridin-4-yl)oxy)pyridin-2-yl)-2-oxoimidazolidine-1-carboxamide], the IC50 with M-NFS-60 cells is 10 to 100 nM; in assay [1] it was 100 to 1000 nM; in assay [2], 10 to 100 nM; in the assay with osteoclast precursors, 10 to 100 nM; in assay [3], less than 10 nM.

Take `Cc1cc(NC(=O)N2CCN(C3CCCC3)C2=O)nc(C)c1Oc1ccnc(-c2cnn(C)c2)c1` [Example 72, 3-cyclopentyl-N-(4,6-dimethyl-5-((2-(1-methyl-1H-pyrazol-4-yl)pyridin-4-yl)oxy)pyridin-2-yl)-2-oxoimidazolidine-1-carboxamide]: the IC50 with M-NFS-60 cells is less than 10 nM; in assay [1], 10 to 100 nM; in assay [2], less than 10 nM; in the assay with osteoclast precursors it was less than 10 nM; in assay [3] it was less than 10 nM.

Consider `COCCN1CCN(C(=O)Nc2ccc(Oc3ccnc(-c4ccc(C5CCN(C)CC5)cc4)c3)c(C)n2)C1=O` [Example 80, 3-(2-methoxyethyl)-N-(6-methyl-5-((2-(4-(1-methylpiperidin-4-yl)phenyl)pyridin-4-yl)oxy)pyridin-2-yl)-2-oxoimidazolidine-1-carboxamide], for which the IC50 in the assay on M-NFS-60 cells is 10 to 100 nM; in assay [1], more than 1000 nM; in assay [2] it was 100 to 1000 nM; in the assay with osteoclast precursors, 10 to 100 nM; in assay [3], less than 10 nM.

For `Cn1cnc(-c2cc(Oc3ccc(NC(=O)N4CCN(C5CCOCC5)C4=O)nc3)ccn2)c1` [Example 83, N-(5-((2-(1-methyl-1H-imidazol-4-yl)pyridin-4-yl)oxy)pyridin-2-yl)-2-oxo-3-(tetrahydro-2H-pyran-4-yl)imidazolidine-1-carboxamide], the IC50 in the assay on M-NFS-60 cells lay in the range of 10 to 100 nM; in assay [1], 100 to 1000 nM; in assay [2], 10 to 100 nM; with osteoclast precursors it was 10 to 100 nM; in assay [3], 10 to 100 nM.

For the compound `Cn1cnc(-c2cc(Oc3ccc(NC(=O)N4CCN(CC(F)(F)F)C4=O)nc3)ccn2)c1` [Example 84, N-(5-((2-(1-methyl-1H-imidazol-4-yl)pyridin-4-yl)oxy)pyridin-2-yl)-2-oxo-3-(2,2,2-trifluoroethyl)imidazolidine-1-carboxamide], the IC50 with M-NFS-60 cells is 10 to 100 nM; in assay [1], more than 1000 nM; in assay [2] it was 10 to 100 nM; in the assay with osteoclast precursors it was 10 to 100 nM; in assay [3], 10 to 100 nM.

For the compound `Cc1nc(NC(=O)N2CCN(C3CC3)C2=O)ccc1Oc1ccnc(-c2ccc(C3CCN(C)CC3)cc2)c1` [Example 86, 3-cyclopropyl-N-(6-methyl-5-((2-(4-(1-methylpiperidin-4-yl)phenyl)pyridin-4-yl)oxy)pyridin-2-yl)-2-oxoimidazolidine-1-carboxamide], the IC50 with M-NFS-60 cells was less than 10 nM; in assay [1], more than 1000 nM; in assay [2] it was 10 to 100 nM; with osteoclast precursors, less than 10 nM; in assay [3], less than 10 nM.

`Cc1cn(-c2cc(Oc3cnc(NC(=O)N4CCN(C)C4=O)cc3C)ccn2)cn1` [Example 89, 3-methyl-N-(4-methyl-5-((2-(4-methyl-1H-imidazol-1-yl)pyridin-4-yl)oxy)pyridin-2-yl)-2-oxoimidazolidine-1-carboxamide]: the IC50 in the assay on M-NFS-60 cells is more than 1000 nM; in assay [1] it was more than 1000 nM; in assay [2] it was 100 to 1000 nM; in the assay with osteoclast precursors, 100 to 1000 nM; in assay [3], 100 to 1000 nM.

With `Cn1cc(-c2cc(Oc3cc(F)c(NC(=O)N4CCN(C5CCOCC5)C4=O)cc3Br)ccn2)cn1` [Example 109, N-(5-bromo-2-fluoro-4-((2-(1-methyl-1H-pyrazol-4-yl)pyridin-4-yl)oxy)phenyl)-2-oxo-3-(tetrahydro-2H-pyran-4-yl)imidazolidine-1-carboxamide], the IC50 is 10 to 100 nM in the assay on M-NFS-60 cells; more than 1000 nM in assay [1]; 10 to 100 nM in assay [2]; 100 to 1000 nM in the assay with osteoclast precursors; 10 to 100 nM in assay [3].

Regarding `CCN1CCN(C(=O)Nc2ccc(Oc3ccnc(C(=O)NC)c3)cn2)C1=O` [Example 115, 4-((6-(3-ethyl-2-oxoimidazolidine-1-carboxamido)pyridin-3-yl)oxy)-N-methylpicolinamide], the IC50 was more than 1000 nM in the assay on M-NFS-60 cells; more than 1000 nM in assay [1]; 100 to 1000 nM in assay [2]; 10 to 100 nM in the assay with osteoclast precursors; 100 to 1000 nM in assay [3].

`COCCN1CCN(C(=O)Nc2ccc(Oc3ccnc(NC(=O)N(C)C)c3)cn2)C1=O` [Example 116, N-(5-((2-(3,3-dimethylureido)pyridin-4-yl)oxy)pyridin-2-yl)-3-(2-methoxyethyl)-2-oxoimidazolidine-1-carboxamide]: the IC50 in the assay on M-NFS-60 cells is 100 to 1000 nM; in assay [1], more than 1000 nM; in assay [2], 10 to 100 nM; in the assay with osteoclast precursors, 10 to 100 nM; in assay [3], 10 to 100 nM.

As for `CC(=O)Nc1cc(Oc2ccc(NC(=O)N3CCN(C4CCOCC4)C3=O)nc2C)ccn1` [Example 121, N-(5-((2-acetamidopyridin-4-yl)oxy)-6-methylpyridin-2-yl)-2-oxo-3-(tetrahydro-2H-pyran-4-yl)imidazolidine-1-carboxamide], the IC50 fell in the range of 100 to 1000 nM in the assay on M-NFS-60 cells; 100 to 1000 nM in assay [1]; 100 to 1000 nM in assay [2]; 100 to 1000 nM in the assay with osteoclast precursors; 10 to 100 nM in assay [3].

Take `CCN1CCN(C(=O)Nc2ccc(Oc3ccnc(NC(C)=O)c3)c(C)n2)C1=O` [Example 122, N-(5-((2-acetamidopyridin-4-yl)oxy)-6-methylpyridin-2-yl)-3-ethyl-2-oxoimidazolidine-1-carboxamide]: the IC50 in the assay on M-NFS-60 cells was 100 to 1000 nM; in assay [1], more than 1000 nM; in assay [2], more than 1000 nM; with osteoclast precursors, 100 to 1000 nM; in assay [3], 10 to 100 nM.
